Patent US20060293388A1, “Pomolic acid, its isomers, derivatives and their uses, pharmaceutical composition, method to prepare the pharmaceutical composition and method for treating multidrug resistant tumours” (UNIVERSIDADE FEDERAL DO RIO DE JANEIRO, priority 2003, published 2006)

Experiments:
[1] = system: K562; test: Growth/survival of K562 cells under vincristine and efflux pump modulators; assay type: cell-based
[2] = system: Lucena 1; test: Growth/survival of Lucena 1 cells under vincristine and efflux pump modulators; assay type: cell-based
Description: A possible reverser activity of pomolic acid was evaluated by testing its effect over Lucena 1 cell line, that over expresses P glycoprotein (Pgp).

[3] = system: K562 cells; test: DNA fragmentation (apoptosis induction) by propidium iodide flow cytometry; assay type: cell-based; details: 18 h, mean ± SD of 3 experiments
Description: The effect of pomolic acid over DNA fragmentation was studied through the analysis of the cell cycle by flow cytometry. For this 90 μl of cells (2.5×10^5 cells/well) will be distributed in 96 well plates to which it will be added 10 μl of medium, DMSO or the drugs under test (10, 25, 50 and 100 μg/ml). After the defined period of time the cells will be harvested and spun down at 240 g for 5 min. The pellet will be resuspended in 300 μl of a HFS solution (HFS: 0.1% of Triton x-100, 0.1% of sodium citrate and 50 μg/ml of propidium iodide) and incubated at 4° C. for 1 h, in the absence of light. The samples will be read in a flow cytometer (Becton and Dikinson) using the FL2 channel.
The K562 cells were treated with 10, 25, 50 and 100 μg/ml of pomolic acid for 18 h, lysed by HFS treatment (that contains propidium iodide) and DNA fragmentation was measured by FACS (flow cytometry). The values represent the mean±SD of three independent experiments.

[4] = system: leukaemic cell line K562; test: Inhibition of cellular proliferation, 3H-thymidine incorporation, K562; assay type: cell-based; details: 1, 10 and 100 μg/ml, 48 hours, FIG. 1, dose-dependent
Description: FIG. 1 describes the inhibition of proliferation of the leukaemic cell line K562 by pomolic acid. […] The values represent the mean±standard error of three independent experiments. The inhibition of cellular proliferation was measured through the incorporation of radioactive thimidine (3H-TdR). For this, 180 μl of the cell suspensions are delivered in wells of a 96 wells culture microtiter plate, 2×10^4 cells/well, followed by incubation in a CO2 incubator, at 37° C. for 24 h. After this period, 20 μl of RPMI (control) or the drug to be tested at the concentrations of 100 μg/ml, 50 μg/ml, 25 μg/ml, 10 μg/ml and 1 μg/ml, are added to each group of four wells. Some wells, to be used as controls, receive 20 μl of DMSO in the same concentrations carried by the drugs. Eight hours before the end of the culture, the plate received a pulse of radioactive thymidine (1 μCi/well) and radioactivity was measured in a β counter. The percentage of inhibition was calculated taking as a reference cell growth in the presence of DMSO.

[5] = system: resistant leukaemia cell line Lucena 1; test: Inhibition of cellular proliferation, 3H-thymidine incorporation, Lucena 1; assay type: cell-based
Description: The values represent the mean±standard error of three independent experiments. […] The values represent the mean±standard error of three independent experiments. The inhibition of cellular proliferation was measured through the incorporation of radioactive thimidine (3H-TdR). For this, 180 μl of the cell suspensions are delivered in wells of a 96 wells culture microtiter plate, 2×10^4 cells/well, followed by incubation in a CO2 incubator, at 37° C. for 24 h. After this period, 20 μl of RPMI (control) or the drug to be tested at the concentrations of 100 μg/ml, 50 μg/ml, 25 μg/ml, 10 μg/ml and 1 μg/ml, are added to each group of four wells. Some wells, to be used as controls, receive 20 μl of DMSO in the same concentrations carried by the drugs. Eight hours before the end of the culture, the plate received a pulse of radioactive thymidine (1 μCi/well) and radioactivity was measured in a β counter. The percentage of inhibition was calculated taking as a reference cell growth in the presence of DMSO. […] The experimental design was the same one as described in example 1.

[6] = system: HL-60 cells; test: Cytotoxicity, MTT method, HL-60; assay type: cell-based; details: 1-100 μg/ml, 48 hours, FIG. 5
Description: HL-60 cells were treated with 1, 5, 10, 25, 50 and 100 μg/ml of pomolic acid for 48 hours. The values represent the mean±standard error of three independent experiments.
(§1) The evaluation of the capacity of pomolic acid, its isomers and derivatives of killing tumor cells will be performed in vitro by the MTT method. The MTT method (3-4,5-dimethylthiazol-2yl)-2,5-diphenyltetrazolium bromide), that is based on the reduction of this compound to Formazam by the enzyme NADH dehydrogenase, Mosmann 1983, allows the quantification of the number of viable cells after treatment. For this, cells from the different cell lines will be processed as described above, distributed into plates and treated with the drug desired concentrations (1, 5, 10, 25, 50 or 100 μg/ml) or DMSO. After 48 h, 20 μl of MTT (5 mg/ml) will be added to each well and the plate will be incubated for a further 4 h in an incubator at 37° C. Following centrifugation, the formazan crystals will be dissolved with DMSO (200 μl/well) and the reading of the absorbance will be made in an ELISA reader at 570 nm wavelength. The percentage of inhibition of cellular viability will be calculated using as reference cells treated with DMSO.

[7] = system: CaCo-2 cells; test: Cytotoxicity, MTT method, CaCo-2; assay type: cell-based; details: 1-100 μg/ml, 48 h, FIGS. 6 and 8
Description: Caco-2 cells were treated with 1, 5, 10, 25, 50 and 100 μg/ml of pomolic acid for 48 hours. The values represent the mean±standard error of three independent experiments.
as §1
(§2) For this 180 μl of the cell suspension (CaCo-2 or MA104) will be delivered to wells in a 96 wells microtiter plate, 2×10^4 cells/well, and the plate incubated in a CO2 incubator at 37° C. for 24 h. […]

[8] = system: MA104 cells; test: Cytotoxicity, MTT method, MA104; assay type: cell-based, monkey; details: 1-100 μg/ml, 48 h, FIGS. 7 and 8
Description: Ma104 cells were treated with 1, 5, 10, 25, 50 and 100 μg/ml of pomolic acid for 48 hours. The values represent the mean±standard error of three independent experiments.
as §1, §2

[9] = system: A549 (lung cancer); test: Cytotoxicity, A549; assay type: cell-based
Text: as §1
(§3) Pomolic's acid activity was evaluated on cells sensitive to chemotherapeutic agents, such as leukaemic lines (K562 and HL-60), of lung cancer (A549) and throat (HEp-2), and on multidrug resistant of leukaemic origin (Lucena 1), of colon cancer (CaCo-2) and of monkey kidney (MA104). […]

[10] = system: HEp-2 (throat cancer); test: Cytotoxicity, HEp-2; assay type: cell-based
Text: as §1, §3

In the case of `CC[C@]1(O)C[C@H]2CN(CCc3c([nH]c4ccccc34)[C@@](C(=O)OC)(c3cc4c(cc3OC)N(C=O)[C@H]3[C@@](O)(C(=O)OC)[C@H](OC(C)=O)[C@]5(CC)C=CCN6CC[C@]43[C@@H]65)C2)C1` [VCR, vincristine], the “percentage of survival in relation to the untreated control, K562” value (“percentage of survival in relation … K562” for short) ([1]; Table 2, 3.75 nM) is reported as 76 ± 7.8%, the “percentage of survival in relation … K562” value ([1]; Table 2, 7.5 nM) is reported as 70.1 ± 11.8% and the “percentage of survival in relation … K562” value ([1]; Table 2, 15 nM) is reported as 29.7 ± 7.7%. For the same compound, the “percentage of survival in relation … K562” value ([1]; Table 2, 30 nM) was 10 ± 2.9%, the “percentage of survival in relation … K562” value ([1]; Table 2, 60 nM) was 4.9 ± 3.1% and the “percentage of survival, K562” value ([1]; Table 3, VCR 60 nM) was 3.1 ± 1.5%. The “percentage of survival in relation to the untreated control, Lucena” value (“percentage of survival in relation … Lucena” below) ([2]; Table 2, 3.75 nM) was 106.6 ± 3.8%, the “percentage of survival in relation … Lucena” value ([2]; Table 2, 7.5 nM) was 98.4 ± 1.9% and the “percentage of survival in relation … Lucena” value ([2]; Table 2, 15 nM) was 97.4 ± 6.3%. For the same compound, the “percentage of survival in relation … Lucena” value ([2]; Table 2, 30 nM) was 99.5 ± 6.5%, the “percentage of survival in relation … Lucena” value ([2]; Table 2, 60 nM) was 97.8 ± 3.7% and the “percentage of survival, Lucena” value ([2]; Table 3, VCR 60 nM) was 105.3 ± 7.3%.
`C[C@@H]1CC[C@]2(C(=O)O)CC[C@]3(C)C(=CC[C@@H]4[C@@]5(C)CC[C@H](O)C(C)(C)[C@@H]5CC[C@]43C)[C@@H]2[C@]1(C)O` [pomolic acid] was tested, and the “Percentage of DNA fragmentation in K562 cells” value (“Percentage of DNA fragmentation” for short) ([3]; 10 μg/ml) was 4.31 ± 1.21%, the “Percentage of DNA fragmentation” value ([3]; 25 μg/ml) was 13.72 ± 0.52% and the “Percentage of DNA fragmentation” value ([3]; 50 μg/ml) was 29.93 ± 2.74%. The “Percentage of DNA fragmentation” value ([3]; 100 μg/ml) was 74.88 ± 5.69%, the “inhibition of proliferation of K562” value [4] was “inhibits” and the “inhibition of proliferation of Lucena” value ([5]; 1, 10 and 100 μg/ml, 48 hours, FIGS. 2 and 3, dose-dependent) was “inhibits”. For the same compound, the “inhibition of Lucena 1 growth in the presence of vincristine” value ([5]; FIG. 2, 48 hours) was “inhibits Lucena's 1 growth in the presence of vincristine”, the “killing of Lucena 1 in the absence of vincristine” value ([5]; FIG. 3, 48 hours) was “kills Lucena 1 in the absence of vincristine” and the Pgp substrate ([5]; concluded from activity on Pgp over-expressing Lucena 1 without vincristine) was “not a Pgp substrate”. For the same compound, the “cytotoxic activity towards HL-60” value [6] was “shows a cytotoxic activity”, the “cytotoxic activity towards CaCo-2” value [7] was “shows a cytotoxic activity” and the “cytotoxic activity towards MA104” value [8] was “shows a cytotoxic activity”. For the same compound, the “cytotoxic activity towards A549” value [9] was “shows a cytotoxic activity” and the “cytotoxic activity towards HEp-2” value [10] was “shows a cytotoxic activity”.
